This test concerns the target T1, neuronal nicotinic acetylcholine receptors (Rattus norvegicus, UniProt P09483+P12390).
T1 construct: crude synaptic membrane preparations from whole rat brain; from tissue; host or cells: whole rat brain, crude synaptic membranes
The experiment in a line: Binding of [3H]-cytisine to neuronal nicotinic acetylcholine receptors, crude synaptic membranes from whole rat brain. On the procedure: The In Vitro protocols for determination of nicotinic acetylcholine channel receptor binding potencies of ligands were determined as follows.
Washed membranes were stored at −80° C. prior to use. Frozen aliquots were slowly thawed and resuspended in 20 volumes of buffer (containing: 120 mM NaCl, 5 mM KCl, 2 mM MgCl2, 2 mM CaCl2 and 50 mM Tris-Cl, pH 7.4 @[…]). After centrifuging at 20,000×g for 15 minutes, the pellets were resuspended in 30 volumes of buffer.
The test compounds were dissolved in water to make 10 mM stock solutions. Each solution was then diluted (1:100) with buffer (as above) and further taken through seven serial log dilutions to produce test solutions from 10^−5 to 10^−11 M.
Samples were incubated for 60 minutes at 4° C., then rapidly filtered through Whatman GF/B filters presoaked in 0.5% polyethyleneimine using 3×4 mL of ice-cold buffer. The filters are counted in 4 mL of Ecolume® (ICN). Nonspecific binding was determined in the presence of 10 μM (−)-nicotine and values were expressed as a percentage of total binding. IC50 values were determined with the RS-1 (BBN) nonlinear least squares curve-fitting program and IC50 values were converted to Ki values using the Cheng and Prusoff correction (Ki=IC50/(1+[ligand]/Kd of ligand).

Setting [1] is: [3H]-CYT 1.25 nM, whole rat brain membranes, 60 minutes at 4° C., IC50 converted to Ki by Cheng and Prusoff correction, read-out: Average Ki.

The structures appear in SMILES notation. Where a name gives a salt, the structure may show the parent alone. Read-outs that look alike come from different tables or passages of the source.

One may read the Ki as a dissociation constant, usually derived from enzyme kinetics or from competition with a known ligand.

T1 sequence (P09483 31-630): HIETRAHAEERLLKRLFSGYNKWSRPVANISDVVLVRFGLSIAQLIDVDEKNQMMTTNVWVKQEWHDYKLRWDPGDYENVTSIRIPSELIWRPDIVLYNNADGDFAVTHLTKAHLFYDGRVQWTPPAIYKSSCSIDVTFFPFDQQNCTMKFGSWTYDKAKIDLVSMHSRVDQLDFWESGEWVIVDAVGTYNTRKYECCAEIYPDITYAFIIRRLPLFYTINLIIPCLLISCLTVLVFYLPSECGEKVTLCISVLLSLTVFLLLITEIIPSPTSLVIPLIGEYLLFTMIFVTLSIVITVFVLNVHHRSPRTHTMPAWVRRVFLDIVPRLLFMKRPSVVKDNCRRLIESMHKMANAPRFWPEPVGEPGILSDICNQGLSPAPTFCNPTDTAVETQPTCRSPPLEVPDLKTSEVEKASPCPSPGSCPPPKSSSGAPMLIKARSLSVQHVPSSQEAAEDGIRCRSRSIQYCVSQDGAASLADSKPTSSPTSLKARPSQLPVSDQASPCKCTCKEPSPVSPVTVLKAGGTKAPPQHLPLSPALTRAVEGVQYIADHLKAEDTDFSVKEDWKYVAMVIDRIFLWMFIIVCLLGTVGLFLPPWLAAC
T1 sequence (P12390 25-500): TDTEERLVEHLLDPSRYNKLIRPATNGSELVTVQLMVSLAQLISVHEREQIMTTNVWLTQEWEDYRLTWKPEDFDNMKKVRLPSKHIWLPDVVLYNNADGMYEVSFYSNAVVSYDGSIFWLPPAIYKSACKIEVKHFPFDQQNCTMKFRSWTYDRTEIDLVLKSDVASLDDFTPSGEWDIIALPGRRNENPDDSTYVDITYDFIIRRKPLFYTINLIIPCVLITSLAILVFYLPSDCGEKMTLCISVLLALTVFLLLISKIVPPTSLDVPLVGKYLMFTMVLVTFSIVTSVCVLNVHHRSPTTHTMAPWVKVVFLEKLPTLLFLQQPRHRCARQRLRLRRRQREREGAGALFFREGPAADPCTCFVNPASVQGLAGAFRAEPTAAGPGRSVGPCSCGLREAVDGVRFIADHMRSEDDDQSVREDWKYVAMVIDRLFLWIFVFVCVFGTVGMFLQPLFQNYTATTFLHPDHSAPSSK

`Clc1ccc(N2CC[C@@H]3CNC[C@@H]32)cn1` (relative stereo) [Example 16, cis-1-(6-chloro-3-pyridinyl)octahydropyrrolo[3,4-b]pyrrole hydrochloride] had a Ki of 23 nM.
`CN1C[C@H]2CCN(c3ccc(Cl)nc3)[C@H]2C1` (relative stereo) [Example 17, cis-1-(6-chloro-3-pyridinyl)-5-methyloctahydropyrrolo[3,4-b]pyrrole hydrochloride] came in with a Ki of 31 nM.
The same measure, in the same setting: in the case of `c1cncc(N2CC[C@@H]3CCN[C@@H]3C2)c1` (relative stereo) [Example 39, (cis)-6-(3-pyridinyl)octahydro-1H-pyrrolo[2,3-c]pyridine dihydrochloride] it was 0.54 nM; in that of `Clc1ccc(N2CC[C@H]3CN[C@H]3C2)cn1` (relative stereo) [Example 42, (cis)-3-(6-chloro-3-pyridinyl)-3,8-diazabicyclo[4.2.0]octane bis(4-methylbenzenesulfonate)], 0.03 nM; in that of `Clc1ccc(N2C[C@H]3CNC[C@H]32)cn1` (relative stereo) [Example 46, (cis)-6-(6-chloro-3-pyridinyl)-3,6-diazabicyclo[3.2.0]heptane fumarate], 0.73 nM.
On the same count and under the same terms, in the case of `CN1C[C@@H]2CN(c3ccc(Cl)nc3)C[C@@H]2C1` [Example 4, cis-2-(6-chloro-3-pyridinyl)-5-methyloctahydropyrrolo[3,4-c]pyrrole dihydrochloride] it was 36 nM; in that of `Oc1cncc(N2C[C@H]3CNC[C@H]3C2)c1` [Example 6, cis-2-(5-hydroxy-3-pyridinyl)octahydropyrrolo[3,4-c]pyrrole dihydrochloride], 0.75 nM.
`c1cncc(N2CC[C@H]3NC[C@H]32)c1` [Example 18, (1R,5R)-2-(3-pyridinyl)-2,6-diazabicyclo[3.2.0]heptane bis(4-methylbenzenesulfonate)]: under setting [1], the Ki came to 154 nM.
For `Clc1ccc(N2C[C@H]3NCC[C@H]32)cn1` [Example 19, (1R,5R)-6-(6-chloro-3-pyridinyl)-2,6-diazabicyclo[3.2.0]heptane bis(4-methylbenzenesulfonate)], the Ki worked out at 576 nM.
As to `c1cncc(N2C[C@H]3NCC[C@H]32)c1` [Example 20, (1R,5R)-6-(3-pyridinyl)-2,6-diazabicyclo[3.2.0]heptane bis(4-methylbenzenesulfonate)], the Ki under setting [1] was 122 nM.
For `Clc1cc(N2C[C@@H]3CCN[C@@H]3C2)cnc1Cl` [Example 25, (3aS,6aS)-5-(5,6-dichloro-3-pyridinyl)octahydropyrrolo[3,4-b]pyrrole hydrochloride], the inhibition constant Ki stood at 1.4 nM.
For the molecule `c1cncc(N2C[C@@H]3CCN[C@@H]3C2)c1` [Example 30, (3aS,6aS)-5-(3-pyridinyl)octahydropyrrolo[3,4-b]pyrrole 4-methylbenzenesulfonate], under setting [1], the Ki is 2.9 nM.
In turn, `Brc1cncc(N2C[C@@H]3CCN[C@@H]3C2)c1` [Example 31, (3aS,6aS)-5-(5-bromo-3-pyridinyl)octahydropyrrolo[3,4-b]pyrrole 4-methylbenzenesulfonate] returned a Ki of 14 nM.
Still for that read-out and setting: for `COc1cncc(N2C[C@@H]3CCN[C@@H]3C2)c1` [Example 32, (3aS,6aS)-5-(5-methoxy-3-pyridinyl)octahydropyrrolo[3,4-b]pyrrole 4-methylbenzenesulfonate] the value was 5.3 nM; for `Clc1ccc(N2CC[C@H]3CN[C@H]3C2)cn1` [Example 49, (1R,6S)-3-(6-chloro-3-pyridinyl)-3,8-diazabicyclo[4.2.0]octane fumarate], 0.02 nM.
`Clc1ccc(N2C[C@H]3CNC[C@H]32)cn1` [Example 57, (1R,5S)-6-(6-chloro-3-pyridinyl)-3,6-diazabicyclo[3.2.0]heptane fumarate] registered a Ki of 1.2 nM.
`Clc1cc(N2C[C@H]3CCN[C@H]3C2)cnc1Br` [Example 59, (3aR,6aR)-5-(6-bromo-5-chloro-3-pyridinyl)octahydropyrrolo[3,4-b]pyrrole fumarate] had a Ki of 0.35 nM.

For the origin of these results see patent publication US8119635B2, “Diazabicyclic central nervous system active agents” (Abbott Laboratories, priority 2000, dated 2012).
